Source: the NIST ThermoML archive (doi:10.1016/j.jct.2011.12.010)
Numbers after ± are expanded uncertainties.

Conditions: for molar entropy: 101.33 kPa, Vacuum adiabatic calorimetry

SMILES: CC(C)(C)Cc1ccccc1 [(2,2-dimethylpropyl)benzene]
- molar entropy (5 K, Crystal): 0.1197 ± 0.017 J/K/mol
- molar entropy (10 K, Crystal): 0.956 ± 0.027 J/K/mol
- molar entropy (15 K, Crystal): 3.026 ± 0.047 J/K/mol
- molar entropy (20 K, Crystal): 6.298 ± 0.07 J/K/mol
- molar entropy (25 K, Crystal): 10.58 ± 0.09 J/K/mol
- molar entropy (30 K, Crystal): 15.48 ± 0.11 J/K/mol
- molar entropy (35 K, Crystal): 20.64 ± 0.12 J/K/mol
- molar entropy (40 K, Crystal): 25.96 ± 0.14 J/K/mol
- molar entropy (45 K, Crystal): 31.32 ± 0.16 J/K/mol
- molar entropy (50 K, Crystal): 36.64 ± 0.17 J/K/mol
- molar entropy (60 K, Crystal): 46.98 ± 0.2 J/K/mol
- molar entropy (70 K, Crystal): 57.07 ± 0.23 J/K/mol
- molar entropy (80 K, Crystal): 66.82 ± 0.26 J/K/mol
- molar entropy (90 K, Crystal): 76.28 ± 0.41 J/K/mol
- molar entropy (100 K, Crystal): 85.56 ± 0.43 J/K/mol
- molar entropy (110 K, Crystal): 94.62 ± 0.44 J/K/mol
- molar entropy (120 K, Crystal): 103.5 ± 0.5 J/K/mol
- molar entropy (130 K, Crystal): 112.2 ± 0.5 J/K/mol
- molar entropy (140 K, Crystal): 120.9 ± 0.5 J/K/mol
- molar entropy (150 K, Crystal): 129.4 ± 0.5 J/K/mol
- molar entropy (160 K, Crystal): 137.8 ± 0.5 J/K/mol
- molar entropy (170 K, Crystal): 146.1 ± 0.5 J/K/mol
- molar entropy (180 K, Crystal): 154.2 ± 0.5 J/K/mol
- molar entropy (190 K, Crystal): 162.5 ± 0.5 J/K/mol
- molar entropy (200 K, Crystal): 170.5 ± 0.6 J/K/mol
- molar entropy (210 K, Crystal): 178.6 ± 0.6 J/K/mol
- molar entropy (220 K, Crystal): 186.7 ± 0.6 J/K/mol
- molar entropy (230 K, Crystal): 194.6 ± 0.6 J/K/mol
- molar entropy (240 K, Crystal): 202.5 ± 0.6 J/K/mol
- molar entropy (250 K, Crystal): 210.4 ± 0.6 J/K/mol
- molar entropy (255.43 K, Crystal): 214.7 ± 0.6 J/K/mol
- molar entropy (255.43 K, Liquid): 274.9 ± 0.7 J/K/mol
- molar entropy (260 K, Liquid): 279.4 ± 0.7 J/K/mol
- molar entropy (270 K, Liquid): 288.9 ± 0.7 J/K/mol
- molar entropy (280 K, Liquid): 298.4 ± 0.7 J/K/mol
- molar entropy (290 K, Liquid): 307.7 ± 0.8 J/K/mol
- molar entropy (298.15 K, Liquid): 315.2 ± 0.8 J/K/mol
- molar entropy (300 K, Liquid): 316.9 ± 0.8 J/K/mol
- molar entropy (310 K, Liquid): 325.8 ± 0.8 J/K/mol
- molar entropy (320 K, Liquid): 334.7 ± 0.8 J/K/mol
- molar entropy (330 K, Liquid): 343.4 ± 0.8 J/K/mol
- molar entropy (340 K, Liquid): 351.9 ± 0.8 J/K/mol
- molar entropy (350 K, Liquid): 360.4 ± 0.8 J/K/mol
- Triple point temperature (Crystal, Adiabatic calorimetry): 255.43 ± 0.05 K
